Results published in patent US10167293B2, “[8-(phenylsulfonyl)-3,8-diazabicyclo[3.2.1]oct-3-yl](1H-1,2,3-triazol-4-yl)methanones” (BAYER PHARMA AKTIENGESELLSCHAFT, priority 2016, dated 2019).

Columns and labels:
recombinant human AKR1C3 = recombinant human AKR1C3 (Homo sapiens (Human), UniProt P42330); assay: AKR1C3-inhibitory activity assay (Coumberone to Coumberol fluorescence); format: biochemical; details: recombinant human AKR1C3, 15 min pre-incubation, 10 μM NADPH, 0.3 μM Coumberone
In short: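 The enzyme was E. coli-expressed, GST-cleaved AKR1C3 (~1 nM), preincubated 15 min with compound in 50 mM potassium phosphate pH 7, 1 mM DTT, 0.01% BSA. NADPH-dependent reduction of Coumberone (0.3 μM final) with 10 μM NADPH final ran typically 90 min at 22 °C in the linear range. After an EM-1404 stop, Coumberol fluorescence (ex 380/em 520 nm) was normalized to no-inhibitor and no-enzyme controls.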

endometriotic lesions = assay: Callithrix jacchus endometriosis model; format: in vivo; details: 5 mg/kg orally once per day, 6 weeks
Description: The in vivo efficacy of compound 76 was tested in a non-human primate endometriosis model in marmoset monkeys.
Marmoset monkeys (Callithrix jacchus) are non-menstruating species in which endometriosis was induced by injection of endometrial tissue into the peritoneal cavity (Einspanier, Lieder et al, 2006). 6-12 year old female common marmosets with established endometriosis were employed (body weight between 358 g and 520 g) and distributed into 2 groups, with a size of n=5 animals per group. Prior to the actual start of the treatment, the animals were subjected to a laparotomy and examined for the presence of endometriotic lesions on the bladder, the uterus and the ovaries to measure each lesion's area. The randomization of animals into the two treatment groups was performed with respect to the initial lesion status at the first laparotomy. The endometriosis severity based on total lesion area per animal was distributed similarly across the groups.
For both the treatment group (5 mg/kg of compound 76) and vehicle treated group, the sum of total lesion area/size [cm^2] per animal, with respect to lesion area and lesion number, was determined and defined as pre-treatment status. 6 weeks later the treatment was started. The test compounds were administered orally once per day in capsules (PC Caps® capsules, Capsugel). To adapt for the intended dose, a trituration of the active compound with lactose was prepared and the exact dose was filled into the individual capsules. Each capsule was separately coated with salvia resistant coating (Eudragit EPO; Evonik). After the end of a 6 weeks treatment period, a second laparotomy was carried out and the number and size of the lesions on uterus, ovaries and bladder was determined with respect to total lesion size/area and defined as post-treatment status.

human primary adipocytes = assay: Inhibition of testosterone formation from androstenedione in human primary adipocytes; format: cell-based; details: 1 μM androstenedione, 1 μM or 10 μM compound, 48 h, donors with BMI 26 and 30
Description: Cat# SA-1012-3 12 well Platte). Adipocytes were incubated in Adipocyte Basal Medium (Fa. ZenBio, Cat# BM-1)+1% FCS+2.5 μg/ml Amphotericin B (Fa. […] Androstenedione served as a substrate for the formation into testosterone. After the incubation adipocytes were collected and testosterone and androstenedione concentrations were determined by LC/MS at the “Bioanalytical Service and research provider Pharm-Analyt”. Inhibition of the conversion of androstenedione to testosterone by compound 76 is determined as Testosterone/Androstenedione ratio [%]. […] FIG. 1: […] The testosterone/androstenedione ratio [%] is shown.

recombinant human AKR1C3, sequence (P42330 whole entry): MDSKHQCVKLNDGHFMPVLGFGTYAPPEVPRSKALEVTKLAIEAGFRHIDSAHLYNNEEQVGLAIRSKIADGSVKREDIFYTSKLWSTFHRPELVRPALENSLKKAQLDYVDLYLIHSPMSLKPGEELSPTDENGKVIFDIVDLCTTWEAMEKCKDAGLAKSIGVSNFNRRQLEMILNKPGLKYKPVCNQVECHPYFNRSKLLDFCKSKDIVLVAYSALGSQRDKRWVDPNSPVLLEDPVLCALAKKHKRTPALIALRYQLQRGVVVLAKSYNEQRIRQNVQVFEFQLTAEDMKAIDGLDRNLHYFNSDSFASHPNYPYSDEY

O=C(c1cnn[n-]1)N1CC2CCC(C1)N2S(=O)(=O)c1cccc(F)c1.[Na+] [Example 76, sodium 5-({8-[(3-fluorophenyl)sulfonyl]-3,8-diazabicyclo[3.2.1]oct-3-yl}carbonyl)-1,2,3-triazol-1-ide]
IC50 (recombinant human AKR1C3): 1.1 nM | mean reduction of the total lesion size compared to baseline (endometriotic lesions; n=5): 68.9% | ratio of total lesion size/area post- versus pre-treatment (endometriotic lesions; all treated animals): below 1 | total lesion size post-treatment versus pre-treatment (endometriotic lesions; marmosets with established endometriosis): strongly reduced | formation of testosterone from androstenedione (Testosterone/Androstenedione ratio) (human primary adipocytes): inhibited
